In ChEMBL document CHEMBL1149238, “A novel mixed-ligand antimycobacterial dimeric copper complex of ciprofloxacin and phenanthroline” (2004) one finds Log of inhibitory zone data, which are given here for one compound.

For the assay, the system named is Mycolicibacterium smegmatis. Briefly: Antimycobacterial activity was determined against Mycobacterium smegmatis. The assay is classed as functional.

Turning to `O=C(O)c1cn(C2CC2)c2cc(N3CCNCC3)c(F)cc2c1=O` [CIPROFLOXACIN], the Log of inhibitory zone is 1.28 log mm.
